Values of other authors as cited in patent US6361800B1 (Cooper Concepts, Inc., priority 2000, dated 2002).
Like-named read-outs stand apart in the source and are kept apart here.

Conditions: 100 I.U. taken for two years or longer

In the case of vitamin E, the “reduced deaths of coronary artery disease” value (39,910 male health professionals) is given as 37% and the “reduced deaths of coronary artery disease” value (87,245 nurses) is given as 40%.
